Laboratory results reported in paper PMC10111423, “Antimalarial Imidazopyridines Incorporating an Intramolecular Hydrogen Bonding Motif: Medicinal Chemistry and Mechanistic Studies” (ACS Infectious Diseases, 2023).
In brackets after ≈: the same amount, converted by molar mass. Like-named read-outs stand apart in the source and are kept apart here.

Tests used:
[1] = tested on: chloroquine-sensitive (NF54) strain of P. falciparum; test: In vitro asexual blood-stage antiplasmodium pLDH assay, NF54 strain; type: cell-based; details: Plasmodium falciparum
Method: (§1) Compounds were screened against multi-drug-resistant (K1) and sensitive (NF54) strains of P. falciparum in vitro using a parasite lactate dehydrogenase assay (pLDH) (the method is described fully in the Supporting Information). […]
(§2) In vitro Asexual Blood Stage Antiplasmodium Assay
(§3) Parasites were cultured as per the method of Trager and Jensen,1 with modifications. IC50 values were determined using parasite lactate dehydrogenase as a marker for survival (Makler […]
(§4) et al, 1993). The test samples were prepared to a 10 mmol/L stock solution in 100% DMSO.
(§5) Samples were tested as a suspension if not completely dissolved. Further dilutions to the desired starting concentration were freshly prepared in growth media on each occasion of the experiment. The standard antimalarial drugs chloroquine (CQ) and artesunate (Arts) were used as the reference drug in all experiments. A full dose-response was performed for all compounds in a 96-well plate to determine the concentration inhibiting 50% of parasite growth (IC50– value). Test samples were tested at a starting concentration of 6mmol/L, which was then serially diluted 2-fold in growth medium to generate the tested concentration range. The same dilution technique was used for all samples. CQ and Arts were tested from a starting concentration of 1µg/mL. The highest concentration of solvent to which the parasites were exposed was <0.1% and has no measurable effect on the parasite viability (data not shown).
(§6) The assay plate was incubated at 37 °C for 72h in a sealed gas chamber under 3% O2 and 4% CO2 with the balance being N2. After 72h, the wells in the assay plate were gently resuspended, and 15µL from each well was transferred to a duplicate plate containing 100µL of Malstat reagent and 25µL of nitroblue tetrazolium solution in each well. Plates were left to develop for 20 minutes in the dark and then absorbance of each well was quantified using a spectrophotometer at 620nm wavelength.
(§7) The remaining population of parasites at each concentration of the test compound was determined by comparing the absorbance of each well to the absorbance of a well containing […]
(§8) the drug-free control. […]
(§9) The initial 100 µg/mL solution is serially diluted 10-

[2] = tested on: multidrug-resistant (K1) strain of P. falciparum; test: In vitro asexual blood-stage antiplasmodium pLDH assay, K1 strain; type: cell-based; details: Plasmodium falciparum, 72 h, n ≥ 3, read-out: In vitro antiplasmodium activity IC50 PfK1 strain
Method: as §1, §2, §3, §4, §5, §6, §7, §8, §9

[3] = In vitro cytotoxicity MTT assay; type: cell-based, Chinese hamster; details: Chinese hamster, Chinese hamster ovarian (CHO) cells; MTT assay
Method: (§10) In vitro cytotoxicity was performed on the Chinese Hamster Ovarian cell line by measuring cellular growth and survival calorimetrically through the MTT assay.[29],[30] The formation of tetrazolium salt was used as a measure of chemosensitivity and growth. (Details of this assay is described in the Supporting Information.) page 19: et al, 1993). The test samples were prepared to a 10 mmol/L stock solution in 100% DMSO. Samples were tested as a suspension if not completely dissolved. Further dilutions to the desired starting concentration were freshly prepared in growth media on each occasion of the experiment. The standard antimalarial drugs chloroquine (CQ) and artesunate (Arts) were used as the reference drug in all experiments. A full dose-response was performed for all compounds […] value). Test samples were tested at a starting concentration of 6mmol/L, which was then serially diluted 2-fold in growth medium to generate the tested concentration range. The same dilution technique was used for all samples. CQ and Arts were tested from a starting concentration of 1μg/mL. The highest concentration of solvent to which the parasites were exposed was <0.1% and has no measurable effect on the parasite viability (data not shown). The assay plate was incubated at 37 °C for 72h in a sealed gas chamber under 3% O2 and 4% CO2 with the balance being N2. After 72h, the wells in the assay plate were gently resuspended, and 15μL from each well was transferred to a duplicate plate containing 100μL of Malstat reagent and 25μL of nitroblue tetrazolium solution in each well. Plates were left to develop for 20 minutes in the dark and then absorbance of each well was quantified using a spectrophotometer at 620nm wavelength. The remaining population of parasites at each concentration of the test compound was determined by comparing the absorbance of each well to the absorbance of a well containing the drug-free control. Survival was plotted against concentration and the IC50 values were obtained using a non-linear dose-response curve fitting analysis via the Dotmatics software platform.2 In vitro Cytotoxicity Assay In vitro cytotoxicity was performed on the Chinese Hamster Ovarian cell line by measuring […] diphenyltetrazolium bromide (MTT) assay.3,4 The formation of tetrazolium salt was used as a measure of chemosensitivity and growth. 2 mg/mL stock solutions of the test compounds were prepared in DMSO and stored at -20 °C until required. The stock solution was subsequently diluted with the assay medium to make up an initial concentration of 100 μg/mL. The initial 100 μg/mL solution is serially diluted 10- S19 page 20: fold to attain six assay concentrations of 100-0.001 μg/mL. […] was used as the reference compound in this assay. The highest concentration of DMSO, which was used as the negative control, had no measurable effect on cell viability. After 44 hours of exposure of the cells to the test compounds, a solution of MTT was added. This was followed by an additional 4 hours of incubation at 37 °C. The assay plates were centrifuged, medium removed, and DMSO was added to the crystals. The amount of formazan was ascertained by measuring the absorbance at 540 nm. GraphPad Prism software was then used to generate IC50 values through a non-linear dose-response curve analysis. β-Hematin Inhibition Assay 20 mM stock solutions of controls and test compounds were made in DMSO. A solution […] was added to every well in columns 1-11 of a 96-well plate. 140 μL of water and 40 μL of 305.5 μM NP-40 were added to column 12 to mediate the formation of beta-hematin. 20 μL of test compounds (20 mM) were added to column 12 and 100 μL of this solution serially diluted to column 2, leaving column 1 blank (0 μM of test compound). 178.8 μL aliquot of hematin stock was suspended in 20 ml of a 1 M acetate buffer at pH 4.9. 100 μL of this hematin suspension was then added into each well, and the plates were incubated for ±5 hrs at 37°C. […]

[4] = tested on: Chinese hamster ovarian (CHO) cell line; test: In vitro cytotoxicity MTT assay; type: cell-based; details: CHO vs PfNF54
Method: as §10

[5] = tested on: β-hematin; test: β-Hematin inhibition assay (BHIA), cell-free NP-40 mediated; type: biochemical; details: mean of n = 3
Method: page 20: fold to attain six assay concentrations of 100-0.001 μg/mL. […] was used as the reference compound in this assay. The highest concentration of DMSO, which was used as the negative control, had no measurable effect on cell viability. After 44 hours of exposure of the cells to the test compounds, a solution of MTT was added. This was followed by an additional 4 hours of incubation at 37 °C. The assay plates were centrifuged, medium removed, and DMSO was added to the crystals. The amount of formazan was ascertained by measuring the absorbance at 540 nm. GraphPad Prism software was then used to generate IC50 values through a non-linear dose-response curve analysis. β-Hematin Inhibition Assay 20 mM stock solutions of controls and test compounds were made in DMSO. A solution […] was added to every well in columns 1-11 of a 96-well plate. 140 μL of water and 40 μL of 305.5 μM NP-40 were added to column 12 to mediate the formation of beta-hematin. 20 μL of test compounds (20 mM) were added to column 12 and 100 μL of this solution serially diluted to column 2, leaving column 1 blank (0 μM of test compound). 178.8 μL aliquot of hematin stock was suspended in 20 ml of a 1 M acetate buffer at pH 4.9. 100 μL of this hematin […] pH 7.4 and 50% pyridine) and 60 μL of acetone were added to all wells. The absorbances of plate wells were recorded at 405 nm on a SpectraMax plate reader. Sigmoidal dose-response curves with variable slopes were fitted to the absorbance data using GraphPad Prism to obtain the IC50 values for each compound. In vitro Microsomal Stability Assay The in vitro microsomal stability assay was performed in duplicate in a 96-well micro titre […] individually in human (pool of 50, mixed gender), rat (pool of 711, male Sprague Dawley) and mouse (pool of 1634, male CD1) liver microsomes (final protein concentration of 0.4 mg/mL; Xenotech, Kansas, USA), suspended in 0.1M phosphate buffer (pH 7.4). Incubations were S20

[6] = Solubility; type: physicochemical; details: pH 6.5, aqueous buffer
Excerpt: Table 1 In Vitro Antiplasmodium Activity, Cytotoxicity, BHIA, and Solubility | column: Solubility pH 6.5, μM

[7] = NF54, pLDH, 72 h, n ≥ 3, read-out: In vitro antiplasmodium activity IC50 PfNF54 strain

Row | SMILES | IC50 [1, 7] | IC50 [2] | IC50 [5] | solubility [6] | IC50 ([1]; NF54, controls, strain not stated in footnote, read-out: IC50 of controls in pLDH antiplasmodium assay) | IC50 at 44 h [3] | SI (selectivity index) = IC50 CHO/IC50 PfNF54 [4] | IC50 ([1]; NF54, read-out: IC50 of controls in pLDH antiplasmodium assay)
1 | CCN(CCNc1cc2[nH]c([C@H]3CC[C@@H](C(F)(F)F)CC3)nc2cn1)Cc1ccc(Cl)cc1O [Compound 17, 5-Chloro-2-((ethyl(2-((2-((1r,4r)-4-(trifluoromethyl)cyclohexyl)-1H-imidazo[4,5-c]pyridin-6-yl)Amino)ethyl)amino)methyl)phenol] | 950 nM | 1.71 µM | 239 µM | 135 µM (≈ 67 µg/mL) |  | 49.1 µM | 51.68 | 
2 | C[C@H]1[C@H](OC(=O)CCC(=O)O)O[C@@H]2O[C@@]3(C)CC[C@H]4[C@H](C)CC[C@@H]1[C@@]24OO3 [artesunate, reference compound] |  |  |  |  | 7 nM |  |  | 
3 | CCN(CCNc1cc2[nH]c([C@H]3CC[C@H](C(F)(F)F)CC3)nc2cn1)Cc1ccc(Cl)cc1O [Compound 16, 5-Chloro-2-((ethyl(2-((2-((1r,4r)-4-(trifluoromethyl)cyclohexyl)-1H-imidazo[4,5-c]pyridin-6-yl)amino)ethyl)amino)methyl)phenol] | 560 nM | 1.89 µM | 127 µM | 135 µM (≈ 67 µg/mL) |  | > 50 µM | >89.29 | 
4 | CCN(CC)CCCC(C)Nc1ccnc2cc(Cl)ccc12 (centres unmarked) [chloroquine, reference compound] |  |  |  |  |  |  |  | 12 nM
5 | O=[N+]([O-])c1ccc(NCCN(CCNc2cc3[nH]c(-c4cccc(C(F)(F)F)c4)nc3cn2)Cc2ccc(Cl)cc2O)c2nonc12 [Compound 14-NBD, 5-Chloro-2-(((2-((7-nitrobenzo[c][1,2,5]oxadiazol-4-yl)amino)ethyl)(2-((2-(3-(trifluoromethyl)phenyl)-1H-imidazo[4,5-c]pyridin-6-yl)amino)ethyl)amino)methyl)phenol] | 49 nM |  |  |  |  |  |  | 
6 | CCN(CCNc1cc2[nH]c(C3CCC(F)(F)CC3)nc2cn1)Cc1ccc(Cl)cc1O [Compound 12, 5-Chloro-2-(((2-((2-(4,4-difluorocyclohexyl)-1H-imidazo[4,5-c]pyridin-6-yl)amino)ethyl)(ethyl)amino)methyl)phenol] | 930 nM | 3.68 µM | 31 µM | < 5 µM |  | > 50 µM |  | 

Further lines, with some results ahead:

Row | IC50 [1, 7] | IC50 [2] | IC50 [5] | solubility [6] | IC50 ([1]; NF54, controls, strain not stated in footnote, read-out: IC50 of controls in pLDH antiplasmodium assay) | SMILES | IC50 at 44 h [3] | SI (selectivity index) = IC50 CHO/IC50 PfNF54 [4] | IC50 ([1]; NF54, read-out: IC50 of controls in pLDH antiplasmodium assay)
7 | 670 nM | 6 µM | 128 µM | 170 µM (≈ 68 µg/mL) |  | CCN(CCNc1cc2[nH]c(C3CCC3)nc2cn1)Cc1ccc(Cl)cc1O [Compound 9, 5-Chloro-2-(((2-((2-cyclobutyl-1H-imidazo[4,5-c]pyridin-6-yl)amino)ethyl)(ethyl)amino)methyl)phenol] | > 50 µM | >74.63 | 
8 | 860 nM | 5.27 µM | 76 µM | 175 µM (≈ 76.3 µg/mL) |  | CCN(CCNc1cc2[nH]c(C3CC(F)(F)C3)nc2cn1)Cc1ccc(Cl)cc1O [Compound 10, 5-Chloro-2-(((2-((2-(3,3-difluorocyclobutyl)-1H-imidazo[4,5-c]pyridin-6-yl)amino)ethyl)(ethyl)amino)methyl)phenol] | > 50 µM | >58.14 | 
9 | 1030 nM | 3.9 µM | 285 µM | 175 µM (≈ 75.1 µg/mL) |  | CCN(CCNc1cc2[nH]c(C3CCCN3C)nc2cn1)Cc1ccc(Cl)cc1O (centres unmarked) [Compound 13, 5-Chloro-2-((ethyl(2-((2-(1-methylpyrrolidin-2-yl)-1H-imidazo[4,5-c]pyridin-6-yl)amino)ethyl)amino)methyl)phenol] | > 50 µM | >48.54 | 
10 | 2910 nM | 2.34 µM | 18 µM | 120 µM (≈ 55 µg/mL) |  | CCN(CCNc1cc2[nH]c(C3CCC(OC)CC3)nc2cn1)Cc1ccc(Cl)cc1O (centres unmarked) [Compound 18, 5-Chloro-2-((ethyl(2-((2-(4-methoxycyclohexyl)-1H-imidazo[4,5-c]pyridin-6-yl)amino)ethyl)amino)methyl)phenol] | > 50 µM | >17.18 | 
11 | 690 nM | 2.12 µM | 80 µM | 140 µM (≈ 59.9 µg/mL) |  | CCN(CCNc1cc2[nH]c(C3CCCCC3)nc2cn1)Cc1ccc(Cl)cc1O [Compound 11, 5-Chloro-2-(((2-((2-cyclohexyl-1H-imidazo[4,5-c]pyridin-6-yl)amino)ethyl)(ethyl)amino)methyl)phenol] | > 50 µM | >72.46 | 
